Laboratory results reported in patent US20260207614A1, “IRAK4 DEGRADERS AND USES THEREOF” (Kymera Therapeutics, Inc., priority 2022, published 2026).
Entries after “also recorded” stand apart in the source; their conditions may differ.

Key:
clinical = conditions: human, in vivo
Source text: The safety margin decreases as the dose increases.

[1] = Phase 1 MAD plasma PK in healthy volunteers; type: in vivo, human; conditions: for Ctrough / AUC: Day 14, geometric mean (% CV); for AUC: read-out: AUC24; for Tmax: Day 14, median (range); for Cmax: Day 14 steady state, geometric mean (% CV)
Procedure: The selection of Compound A doses will be guided by the safety, tolerability, and PK data in humans from the SAD portion of the study. […] Increasing dose levels in subsequent MAD cohorts will be identified based on the safety and PK observed in the previous SAD and MAD cohorts. Dose escalation between each MAD cohort will not exceed 100%.
However, the dosing interval and the duration of dosing may change following review of the safety, PK, and PD data from Part A.
A MAD5 cohort was added including five twice-weekly doses of 200 mg.
Geometric Mean (% CV) reported for all parameters, except tmax where median (range) are presented. Accumulation Ratio represents fold change in exposure from Day 1 to Day 14.

[2] = Phase 1 Part C plasma PK in HS/AD patients; type: in vivo; conditions: human
Source text: Part C: Part C is an open-label, multiple dose study in a single cohort of up to 20 patients with AD or HS (at least 10 patients with AD) and will commence after the completion of Part B. Part C will be conducted on both an inpatient and outpatient basis and patients will continue to be followed for safety through Day 28. The dose regimen and the requirement for patient confinement to the clinical units will be selected by the SRC from review of the safety. PK, and PD data after completion of Part B.

[3] = Phase 1 SAD safety and tolerability; type: in vivo, human
Source text: Part A: Part A is a double-blind, randomized, placebo-controlled, SAD, sequential group study in 56 adult HVs, divided in 7 cohorts of eight HVs each. Seven ascending single doses (1 dose level per cohort) will be investigated. One or more additional cohorts may be added, as needed.
• Treatment-emergent (serious) adverse events ([S]AEs) • Concomitant medication • Clinical laboratory tests • Hematology • Coagulation • Chemistry • Urinalysis and urine microscopy • Vital signs • Pulse Rate (bpm) • Systolic blood pressure (BP) (mm Hg) • Diastolic BP (mm Hg) • Respiratory rate • Temperature • Safety electrocardiogram and Holter monitoring • Heart Rate (bpm). PR, QRS, QT, QTcF
All data will be fully listed.

Permeability = type: in vitro ADME
Source text: In in vivo pharmacokinetic (PK) studies conducted in rats, dogs, and monkeys.
Compound A can be classified tentatively as a BCS II compound.

[4] = blinded SAD, study treatment related, per Investigator

Compound: Cn1c(=O)n([C@@H]2CCC(=O)NC2=O)c2cccc(C#CCOC3CCN(C[C@H]4CC[C@H](n5cc(NC(=O)c6cnn7ccc(N8C[C@H]9C[C@@H]8CO9)nc67)c(C(F)F)n5)CC4)CC3)c21 [Compound A, 5-((1R,4R)-2-oxa-5-azabicyclo[2.2.1]heptan-5-yl)-N-(3-(difluoromethyl)-1-((1r,4R)-4-((4-((3-(1-(2,6-dioxopiperidin-3-yl)-3-methyl-2-oxo-2,3-dihydro-1H-benzo[d]imidazol-4-yl)prop-2-yn-1-yl)oxy)piperidin-1-yl)methyl)cyclohexyl)-1H-pyrazol-4-yl)pyrazolo[1,5-a]pyrimidine-3-carboxamide]
- half-life (clinical): 25 to 40 h
- inter-subject variability in exposure (clinical): low to moderate
- AUC (clinical; po, 25 mg): 112 ng·h/mL
- Cmax (clinical; po, 25 mg): 3.49 ng/mL
- Tmax (clinical; po, 25 mg): 8 h
- half-life (clinical; po, 25 mg): 25.2 h
- AUC (clinical; po, 75 mg): 288 ng·h/mL
- Cmax (clinical; po, 75 mg): 9.08 ng/mL
- Tmax (clinical; po, 75 mg): 7 h
- half-life (clinical; po, 75 mg): 28.7 h
- AUC (clinical; po, 150 mg): 483 ng·h/mL
- Cmax (clinical; po, 150 mg): 12.7 ng/mL
- Tmax (clinical; po, 150 mg): 9 h
- half-life (clinical; po, 150 mg): 31.6 h
- AUC (clinical; po, 300 mg): 848 ng·h/mL
- Cmax (clinical; po, 300 mg): 17.4 ng/mL
- Tmax (clinical; po, 300 mg): 8 h
- half-life (clinical; po, 300 mg): 26.6 h
- AUC (clinical; po, 600 mg): 1520 ng·h/mL
- Cmax (clinical; po, 600 mg): 24.2 ng/mL
- Tmax (clinical; po, 600 mg): 12 h
- half-life (clinical; po, 600 mg): 30.1 h
- AUC (clinical; po, 1000 mg): 1950 ng·h/mL
- Cmax (clinical; po, 1000 mg): 27.8 ng/mL
- Tmax (clinical; po, 1000 mg): 20 h
- half-life (clinical; po, 1000 mg): 40.2 h
- AUC (clinical; po, 1600 mg): 1920 ng·h/mL
- Cmax (clinical; po, 1600 mg): 27.3 ng/mL
- Tmax (clinical; po, 1600 mg): 24 h
- half-life (clinical; po, 1600 mg): 36.4 h
- Ctrough ([1]; 25 mg QD): 5.03 (30.3) ng/mL
- Ctrough ([1]; 50 mg QD): 7.28 (35.1) ng/mL
- Ctrough ([1]; 100 mg QD): 9.81 (30.1) ng/mL
- Ctrough ([1]; 200 mg QD): 18.8 (32.6) ng/mL
- day of dosing by which steady-state plasma levels reached ([1]; MAD, once daily): ≤ 7 days
- AUC ([1]; human, plasma, oral, 25 mg QD): 153 ng·h/mL
- Tmax ([1]; human, plasma, oral, 25 mg QD): 8 h
- Cmax ([1]; human, plasma, oral, 25 mg QD): 8.2 ng/mL
- AUC ([1]; human, plasma, oral, 50 mg QD): 224 ng·h/mL
- Tmax ([1]; human, plasma, oral, 50 mg QD): 8 h
- Cmax ([1]; human, plasma, oral, 50 mg QD): 12 ng/mL
- AUC ([1]; human, plasma, oral, 100 mg QD): 314 ng·h/mL
- Tmax ([1]; human, plasma, oral, 100 mg QD): 8 h
- Cmax ([1]; human, plasma, oral, 100 mg QD): 16.1 ng/mL
- AUC ([1]; human, plasma, oral, 200 mg QD): 498 ng·h/mL
- Tmax ([1]; human, plasma, oral, 200 mg QD): 8 h
- Cmax ([1]; human, plasma, oral, 200 mg QD): 25.2 ng/mL
- half-life ([1]; human, plasma, oral, healthy volunteers, read-out: half-life, range observed in MAD): 34 to 59 h
- exposure in fasted state as share of exposure in fed state ([2]; in vivo): about 133%
- exposure in fed state as share of exposure in fasted state ([2]; in vivo): about 75%
- half-life ([2]; plasma, oral, Part C, 75 mg QD fed, HS/AD patients): 44 h
- Abdominal pain, Severity ([3]; Cohort SAD 5): Mild
- Diarrhea, Severity ([3]; Cohort SAD 5): Mild
- Headache, Severity ([3]; Cohort SAD 5): Mild (x2)
- Palpitations, Severity ([3]; Cohort SAD 5): Mild
- Headache, Severity ([3]; Cohort SAD 5, SAD 5 FE, SAD 6): Moderate (x3)
- Diarrhea, Severity ([3]; Cohort SAD 5 FE): Mild
- Nausea, Severity ([3]; Cohort SAD 5 FE): Mild
- Vomiting, Severity ([3]; Cohort SAD 5 FE): Mild (x2)
- Muscle weakness, Severity ([3]; Cohort SAD 6): Mild
- Myalgia, Severity ([3]; Cohort SAD 6): Mild
- Nausea, Severity ([3]; Cohort SAD 6): Mild (x2)
- ECG changes ([3]; SAD): No significant ECG changes
- QTcF prolongation ([3]; SAD): no clinically significant QTcF prolongation
- serious adverse events ([3]; SAD): no serious adverse events; also recorded: No SAEs
- AST elevation ([3]; SAD 5, n=1, resolution ~Day 21): 3.8 ×ULN
- ALT elevation ([3]; SAD 5, n=1, slow resolution to baseline): 2.5 ×ULN
- Abdominal pain, #AEs (subjects) [3, 4]: 1
- Diarrhea, #AEs (subjects) [3, 4]: 2 (2)
- Headache, #AEs (subjects) [3, 4]: 5 (4)
- Muscle weakness, #AEs (subjects) [3, 4]: 1
- Myalgia, #AEs (subjects) [3, 4]: 1
- Nausea, #AEs (subjects) [3, 4]: 3 (3)
- Palpitations, #AEs (subjects) [3, 4]: 1
- Vomiting, #AEs (subjects) [3, 4]: 2 (1)
- safety and tolerability ([3]; single doses, healthy volunteers): safe and well-tolerated
- permeability (Permeability): medium; also recorded: moderate
